Several values for one entry are separate records, joined by “and”; a condition that tells them apart may be missing. Equal entries are not always repeated. Toxic doses and inconclusive results are not listed. Cut-off read from the data, not from the text of the source: active = T/C of 150% or more; inactive = T/C below 125%.
Tested on: L1210 leukemia ip in BDF1 mice, survival T/C
Assay: NCI In Vivo Anticancer Drug Screen. Data for tumor model L1210 Leukemia (intraperitoneal) in B6D2F1 (BDF1) mice
Conditions: higher = longer survival
How it was run: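 Ratio derived from survival: compound-dosed mice over vehicle-dosed mice, all bearing a transplantable tumor.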

Measured: T/C

O=P1(N(CCCl)CCCl)NCCCO1 (configuration not stated)
inactive: endpoint: mean survival time, dose: 0.9 mg/kg/injection, schedule: Q01DX009 (ip), vehicle: saline 99 % of control and 100 % of control | endpoint: mean survival time, dose: 1.0 mg/kg/injection, schedule: Q01DX Z (ip), vehicle: methylcellulose (MC) 93 % of control | endpoint: mean survival time, dose: 1.0 mg/kg/injection, schedule: Q01DX Z (oral), vehicle: saline 93 % of control | endpoint: mean survival time, dose: 1.0 mg/kg/injection, schedule: Q07DX Z (ip), vehicle: saline 103 % of control | endpoint: mean survival time, dose: 1.8 mg/kg/injection, schedule: Q01DX009 (ip), vehicle: saline 94 % of control | endpoint: mean survival time, dose: 2.5 mg/kg/injection, schedule: Q07DX Z (ip), vehicle: saline 97 % of control | endpoint: mean survival time, dose: 3.2 mg/kg/injection, schedule: Q01DX001 (ip), vehicle: saline 95 % of control | endpoint: mean survival time, dose: 3.5 mg/kg/injection, schedule: Q01DX009 (ip), vehicle: saline 100 % of control and 104 % of control | endpoint: mean survival time, dose: 3.5 mg/kg/injection, schedule: Q03HX032 (ip), vehicle: saline 110 % of control | endpoint: mean survival time, dose: 3.5 mg/kg/injection, schedule: Q## X032 (ip), vehicle: saline 110 % of control | endpoint: mean survival time, dose: 4.3 mg/kg/injection, schedule: Q01DX Z (ip), vehicle: saline 98 % of control | endpoint: mean survival time, dose: 5.0 mg/kg/injection, schedule: Q01DX Z (ip), vehicle: methylcellulose (MC) 105 % of control | endpoint: mean survival time, dose: 5.0 mg/kg/injection, schedule: Q07DX Z (ip), vehicle: saline 97 % of control | endpoint: mean survival time, dose: 5.36 mg/kg/injection, schedule: Q03HX032 (ip), vehicle: saline 102 % of control | endpoint: mean survival time, dose: 5.36 mg/kg/injection, schedule: Q## X032 (ip), vehicle: saline 102 % of control | endpoint: mean survival time, dose: 5.6 mg/kg/injection, schedule: Q13HX018 (ip), vehicle: saline 98 % of control | endpoint: mean survival time, dose: 6.0 mg/kg/injection, schedule: Q01DX Z (oral), vehicle: saline 108 % of control | endpoint: mean survival time, dose: 6.0 mg/kg/injection, schedule: Q03DX Z (ip), vehicle: saline 109 % of control | endpoint: mean survival time, dose: 6.25 mg/kg/injection, schedule: Q01DX009 (ip), vehicle: saline 104 % of control and 107 % of control | endpoint: mean survival time, dose: 6.25 mg/kg/injection, schedule: Q01DX Z (ip), vehicle: saline 102 % of control | endpoint: mean survival time, dose: 6.3 mg/kg/injection, schedule: Q01DX001 (ip), vehicle: saline 94 % of control | endpoint: mean survival time, dose: 7.13 mg/kg/injection, schedule: Q01DX Z (ip), vehicle: carboxymethylcellulose (CMC) 109 % of control | endpoint: mean survival time, dose: 7.5 mg/kg/injection, schedule: Q01DX009 (ip), vehicle: saline 110 % of control | endpoint: mean survival time, dose: 7.5 mg/kg/injection, schedule: Q01DX Z (ip), vehicle: saline 110 % of control | endpoint: mean survival time, dose: 7.5 mg/kg/injection, schedule: Q04DX002 (ip), vehicle: saline 94 % of control and 111 % of control | endpoint: mean survival time, dose: 8.5 mg/kg/injection, schedule: Q01DX Z (ip), vehicle: saline 110 % of control | endpoint: mean survival time, dose: 9.4 mg/kg/injection, schedule: Q01DX001 (ip), vehicle: water 103 % of control | endpoint: mean survival time, dose: 9.9 mg/kg/injection, schedule: Q01DX010 (ip), vehicle: saline 104 % of control | endpoint: mean survival time, dose: 10.0 mg/kg/injection, schedule: Q01DX Z (ip), vehicle: methylcellulose (MC) 104 % of control | endpoint: mean survival time, dose: 10.0 mg/kg/injection, schedule: Q07DX Z (ip), vehicle: saline 102 % of control | endpoint: mean survival time, dose: 11.25 mg/kg/injection, schedule: Q01DX001 (ip), vehicle: saline 98 % of control and 105 % of control | endpoint: mean survival time, dose: 11.3 mg/kg/injection, schedule: Q01DX Z (ip), vehicle: saline 113 % of control | endpoint: mean survival time, dose: 11.3 mg/kg/injection, schedule: Q## X Z (ip), vehicle: saline 110 % of control | endpoint: mean survival time, dose: 12.0 mg/kg/injection, schedule: Q01DX001 (ip), vehicle: saline 94 % of control and 111 % of control | endpoint: mean survival time, dose: 12.0 mg/kg/injection, schedule: Q01DX Z (im), vehicle: saline 97 % of control | endpoint: mean survival time, dose: 12.0 mg/kg/injection, schedule: Q01DX Z (oral), vehicle: saline 109 % of control | endpoint: mean survival time, dose: 12.0 mg/kg/injection, schedule: Q02DX010 (ip), vehicle: saline 111 % of control | endpoint: mean survival time, dose: 12.0 mg/kg/injection, schedule: Q03DX Z (ip), vehicle: saline 107 % of control | endpoint: mean survival time, dose: 12.5 mg/kg/injection, schedule: Q01DX001 (ip), vehicle: saline 96 % of control | endpoint: mean survival time, dose: 12.5 mg/kg/injection, schedule: Q01DX009 (ip), vehicle: saline 110 % of control | endpoint: mean survival time, dose: 12.5 mg/kg/injection, schedule: Q01DX Z (ip), vehicle: carboxymethylcellulose (CMC) 101 % of control | endpoint: mean survival time, dose: 12.6 mg/kg/injection, schedule: Q01DX009 (ip), vehicle: saline 110 % of control | endpoint: mean survival time, dose: 12.6 mg/kg/injection, schedule: Q01DX Z (ip), vehicle: saline 110 % of control | endpoint: mean survival time, dose: 15.0 mg/kg/injection, schedule: Q01DX Z (ip), vehicle: methylcellulose (MC) 100 % of control | endpoint: mean survival time, dose: 15.0 mg/kg/injection, schedule: Q04DX002 (ip), vehicle: saline 103 % of control | endpoint: mean survival time, dose: 15.0 mg/kg/injection, schedule: Q07DX Z (ip), vehicle: saline 107 % of control | endpoint: mean survival time, dose: 18.75 mg/kg/injection, schedule: Q01DX001 (ip), vehicle: water 103 % of control | endpoint: mean survival time, dose: 18.76 mg/kg/injection, schedule: Q02DX010 (ip), vehicle: saline 112 % of control | endpoint: mean survival time, dose: 19.0 mg/kg/injection, schedule: Q02DX010 (ip), vehicle: saline 110 % of control | endpoint: mean survival time, dose: 20.0 mg/kg/injection, schedule: Q01DX Z (ip), vehicle: methylcellulose (MC) 98 % of control | endpoint: mean survival time, dose: 22.5 mg/kg/injection, schedule: Q01DX001 (ip), vehicle: saline 106 % of control and 109 % of control | endpoint: mean survival time, dose: 22.5 mg/kg/injection, schedule: Q## X Z (ip), vehicle: saline 105 % of control | endpoint: mean survival time, dose: 25.0 mg/kg/injection, schedule: Q01DX006 (iv), vehicle: saline 103 % of control | endpoint: mean survival time, dose: 25.0 mg/kg/injection, schedule: Q01DX Z (im), vehicle: saline 113 % of control | endpoint: mean survival time, dose: 25.0 mg/kg/injection, schedule: Q04DX003 (ip), vehicle: saline 104 % of control | endpoint: mean survival time, dose: 28.5 mg/kg/injection, schedule: Q01DX Z (ip), vehicle: carboxymethylcellulose (CMC) 114 % of control | endpoint: mean survival time, dose: 37.0 mg/kg/injection, schedule: Q01DX001 (ip), vehicle: water 114 % of control | endpoint: mean survival time, dose: 37.5 mg/kg/injection, schedule: Q01DX001 (ip), vehicle: saline with Tween-80 112 % of control | endpoint: mean survival time, dose: 37.5 mg/kg/injection, schedule: Q01DX001 (ip), vehicle: water 114 % of control | endpoint: mean survival time, dose: 45.0 mg/kg/injection, schedule: Q13HX018 (ip), vehicle: saline 107 % of control | endpoint: mean survival time, dose: 45.0 mg/kg/injection, schedule: Q## X Z (ip), vehicle: saline 105 % of control | endpoint: mean survival time, dose: 50.0 mg/kg/injection, schedule: Q01DX Z (ip), vehicle: methylcellulose (MC) 112 % of control | endpoint: mean survival time, dose: 67.5 mg/kg/injection, schedule: Q## X006 (ip), vehicle: saline 100 % of control | endpoint: mean survival time, dose: 86.0 mg/kg/injection, schedule: Q01DX001 (ip), vehicle: saline 112 % of control | endpoint: mean survival time, dose: 90.0 mg/kg/injection, schedule: Q01DX009 (ip), vehicle: saline 107 % of control | endpoint: mean survival time, dose: 90.0 mg/kg/injection, schedule: Q01DX Z (ip), vehicle: saline 98 % of control | endpoint: mean survival time, dose: 90.0 mg/kg/injection, schedule: Q02DX010 (ip), vehicle: carboxymethylcellulose (CMC) 105 % of control | endpoint: mean survival time, dose: 97.0 mg/kg/injection, schedule: Q02DX010 (ip), vehicle: carboxymethylcellulose (CMC) 107 % of control | endpoint: mean survival time, dose: 97.0 mg/kg/injection, schedule: Q02DX010 (ip), vehicle: other 98 % of control | endpoint: mean survival time, dose: 100.0 mg/kg/injection, schedule: Q01DX Z (ip), vehicle: methylcellulose (MC) 108 % of control | endpoint: mean survival time, dose: 100.0 mg/kg/injection, schedule: Q01DX Z (oral), vehicle: saline 107 % of control | endpoint: mean survival time, dose: 135.0 mg/kg/injection, schedule: Q02DX010 (ip), vehicle: saline 111 % of control | endpoint: mean survival time, dose: 180.0 mg/kg/injection, schedule: Q01DX009 (ip), vehicle: saline 96 % of control | endpoint: mean survival time, dose: 180.0 mg/kg/injection, schedule: Q01DX010 (ip), vehicle: saline 102 % of control | endpoint: mean survival time, dose: 200.0 mg/kg/injection, schedule: Q01DX009 (ip), vehicle: saline 93 % of control | endpoint: mean survival time, dose: 200.0 mg/kg/injection, schedule: Q01DX Z (ip), vehicle: saline 100 % of control | endpoint: mean survival time, dose: 320.0 mg/kg/injection, schedule: Q04DX003 (ip), vehicle: saline 111 % of control | endpoint: mean survival time, dose: 360.0 mg/kg/injection, schedule: Q01DX001 (ip), vehicle: saline 113 % of control | endpoint: mean survival time, dose: 400.0 mg/kg/injection, schedule: Q04DX002 (ip), vehicle: saline 100 % of control | endpoint: mean survival time, dose: 468.0 mg/kg/injection, schedule: Q04DX002 (ip), vehicle: saline 111 % of control | endpoint: mean survival time, dose: 900.0 mg/kg/injection, schedule: Q01DX001 (ip), vehicle: saline 102 % of control | endpoint: median survival time, dose: 5.0 mg/kg/injection, schedule: Q01DX009 (ip), vehicle: saline 101 % of control and 110 % of control | endpoint: median survival time, dose: 10.0 mg/kg/injection, schedule: Q01DX001 (ip), vehicle: saline 99 % of control and 100 % of control | endpoint: median survival time, dose: 20.0 mg/kg/injection, schedule: Q01DX001 (ip), vehicle: saline 106 % of control | endpoint: median survival time, dose: 50.0 mg/kg/injection, schedule: Q08DX003 (ip), vehicle: saline 95 % of control and 97 % of control | endpoint: median survival time, dose: 90.0 mg/kg/injection, schedule: Q01DX009 (ip), vehicle: saline 105 % of control and 112 % of control | endpoint: median survival time, dose: 180.0 mg/kg/injection, schedule: Q01DX009 (ip), vehicle: saline 93 % of control
